Experimental data reported in ChEMBL document CHEMBL1201862, “PubChem BioAssay data set” (2004).
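1) Cells in 96-well plates. 2) Compound, 48 h, 5 concentrations. 3) Linear interpolation between surrounding doses. 4) Unreached endpoint = highest concentration. Abbreviation: GI50, concentration required for 50% inhibition of growth.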 The source made the active and inactive calls. Cut-off read from the data, not from the text of the source: active = GI50 up to about 1.1 µM and inactive = higher.

Tests used:
Test in all cases: growth of human tumour cells (NCI), 48 h
[1] = tested on: UACC-62
[2] = tested on: SF-539
[3] = tested on: IGROV-1
[4] = tested on: M14
[5] = tested on: HCT-116
[6] = tested on: MCF7
[7] = tested on: SK-OV-3
[8] = tested on: DU-145
[9] = tested on: SW-620
[10] = tested on: HT-29
[11] = tested on: HOP-92
[12] = tested on: A498
[13] = tested on: SF-295
[14] = tested on: KM12
[15] = tested on: Hs-578T
[16] = tested on: SK-MEL-2
[17] = tested on: OVCAR-8
[18] = tested on: MDA-MB-231
[19] = tested on: NCI-H226
[20] = tested on: COLO 205
[21] = tested on: HL-60
[22] = tested on: SR
[23] = tested on: Malme-3M
[24] = tested on: NCI-H23
[25] = tested on: ACHN
[26] = tested on: OVCAR-3
[27] = tested on: LOX IMVI
[28] = tested on: NCI/ADR-RES
[29] = tested on: NCI-H460
[30] = tested on: T47D
[31] = tested on: NCI-H522
[32] = tested on: SNB-19
[33] = tested on: OVCAR-5
[34] = tested on: UO-31
[35] = tested on: HCT-15
[36] = tested on: SK-MEL-5
[37] = tested on: EKVX
[38] = tested on: K562
[39] = tested on: HOP-62
[40] = tested on: TK-10
[41] = tested on: CAKI-1
[42] = tested on: SN12C
[43] = tested on: U-251
[44] = tested on: CCRF-CEM
[45] = tested on: BT-549
[46] = tested on: MDA-MB-435
[47] = tested on: UACC-257
[48] = tested on: A549
[49] = tested on: SF-268
[50] = tested on: RPMI-8226
[51] = tested on: 786-0
[52] = tested on: PC-3

With `CO[C@]12C[C@H](CNC(=O)c3ccc[nH]3)O[C@H]1NC(=O)N2` the GI50 [1] was > 100 µM (inactive), the GI50 [2] was > 100 µM (inactive) and the GI50 [3] was > 100 µM (inactive). For the same molecule, the GI50 [4] was > 100 µM (inactive), the GI50 [5] was > 100 µM (inactive) and the GI50 [6] was > 100 µM (inactive). For the same molecule, the GI50 [7] was > 100 µM (inactive), the GI50 [8] was > 100 µM (inactive) and the GI50 [9] was > 100 µM (inactive). The GI50 [10] was 33.7 µM (inactive), the GI50 [11] was > 100 µM (inactive) and the GI50 [12] was > 100 µM (inactive). The GI50 [13] was > 100 µM (inactive), the GI50 [14] was > 100 µM (inactive) and the GI50 [15] was > 100 µM (inactive). For the same molecule, the GI50 [16] was > 100 µM (inactive), the GI50 [17] was > 100 µM (inactive) and the GI50 [18] was > 100 µM (inactive). The GI50 [19] was > 100 µM (inactive), the GI50 [20] was > 100 µM (inactive) and the GI50 [21] was > 100 µM (inactive). The GI50 [22] was 9.31 µM (inactive), the GI50 [23] was > 100 µM (inactive) and the GI50 [24] was > 100 µM (inactive). The GI50 [25] was > 100 µM (inactive), the GI50 [26] was > 100 µM (inactive) and the GI50 [27] was > 100 µM (inactive). The GI50 [28] was > 100 µM (inactive), the GI50 [29] was > 100 µM (inactive) and the GI50 [30] was > 100 µM (inactive). For the same molecule, the GI50 [31] was > 100 µM (inactive), the GI50 [32] was > 100 µM (inactive) and the GI50 [33] was > 100 µM (inactive). The GI50 [34] was > 100 µM (inactive), the GI50 [35] was over 100 µM and the GI50 [36] was > 100 µM (inactive). For the same molecule, the GI50 [37] was > 100 µM (inactive), the GI50 [38] was > 100 µM (inactive) and the GI50 [39] was > 100 µM (inactive). For the same molecule, the GI50 [40] was > 100 µM (inactive), the GI50 [41] was > 100 µM (inactive) and the GI50 [42] was > 100 µM (inactive). For the same molecule, the GI50 [43] was > 100 µM (inactive), the GI50 [44] was > 100 µM (inactive) and the GI50 [45] was > 100 µM (inactive). The GI50 [46] was > 100 µM (inactive), the GI50 [47] was > 100 µM (inactive) and the GI50 [48] was > 100 µM (inactive). The GI50 [49] was > 100 µM (inactive), the GI50 [50] was > 100 µM (inactive) and the GI50 [51] was > 100 µM (inactive). The GI50 [52] was > 100 µM (inactive).
